In patent US20080318943A1, “Compounds and Uses Thereof - 848” (ASTRAZENECA AB, priority 2007, published 2008):

Legend:
GABAA receptor α2β3γ2 = biological target: T1, GABAA receptor α2β3γ2 (Homo sapiens, UniProt P18507+P47869); experiment: Two-electrode voltage-clamp potentiation of GABA EC10 current in Xenopus oocytes, GABAA2; type: cell-based; conditions: percentage potentiation of GABA EC10 current divided by that of diazepam
T1 construct: expressed in transfected cells; host or cells: Xenopus laevis oocytes injected with cRNA
Procedure, shortened: (§1)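 Human GABAA receptors expressed in Xenopus oocytes by cRNA injection (α:β:γ molar ratio ~1:1:10 for α1β2γ2, 1:1:1 for α2β3γ2), recorded 2-10 days later by two-electrode voltage clamp at −60 mV in ND-96, pH 7.5. Modulator preapplied 30 s before GABA at per-oocyte EC10. Peak-current percent potentiation over GABA alone, normalised to diazepam.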

GABAA receptor α1β2γ2 = biological target: T2, GABAA receptor α1β2γ2 (Homo sapiens, UniProt P14867+P18507); experiment: Two-electrode voltage-clamp potentiation of GABA EC10 current in Xenopus oocytes, GABAA1; type: cell-based; conditions: percentage potentiation of GABA EC10 current divided by that of diazepam
T2 construct: expressed in transfected cells; host or cells: Xenopus laevis oocytes injected with cRNA
Procedure, shortened: as §1

[1] = biological target: T3, GABAA2 receptors (α2, β3, γ2 receptor subunits transfected into Sf9 cells) (Homo sapiens, UniProt P18507+P47869); experiment: GABAA2 Binding Method ([3H]-Flunitrazepam displacement); conditions: [3H]-Flunitrazepam ~2 nM, α2β3γ2 Sf9 membranes, 1 hr at 4° C.
T3 construct: host or cells: Sf9 cells (membranes)
Procedure, shortened: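 Displacement of [3H]-flunitrazepam (~2 nM in assay) from recombinant human α2β3γ2 receptors in Sf9 membranes; 1 h incubation at 4 °C, harvest by filtration. Values reported as percent of control, IC50 and Ki.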

T2 sequence (P14867 28-456): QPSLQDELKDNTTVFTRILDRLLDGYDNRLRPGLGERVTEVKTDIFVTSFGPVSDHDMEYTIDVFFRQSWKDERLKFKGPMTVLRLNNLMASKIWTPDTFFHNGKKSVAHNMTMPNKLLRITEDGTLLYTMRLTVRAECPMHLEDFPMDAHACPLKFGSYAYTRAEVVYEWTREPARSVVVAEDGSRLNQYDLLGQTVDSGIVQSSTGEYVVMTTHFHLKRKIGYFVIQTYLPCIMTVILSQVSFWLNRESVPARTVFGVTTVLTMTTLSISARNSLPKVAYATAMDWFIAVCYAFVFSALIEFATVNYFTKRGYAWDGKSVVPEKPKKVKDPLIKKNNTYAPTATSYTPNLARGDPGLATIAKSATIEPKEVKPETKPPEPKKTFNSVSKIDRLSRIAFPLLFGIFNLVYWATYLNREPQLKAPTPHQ
T2 sequence (P47870 25-512 partner limits assumed): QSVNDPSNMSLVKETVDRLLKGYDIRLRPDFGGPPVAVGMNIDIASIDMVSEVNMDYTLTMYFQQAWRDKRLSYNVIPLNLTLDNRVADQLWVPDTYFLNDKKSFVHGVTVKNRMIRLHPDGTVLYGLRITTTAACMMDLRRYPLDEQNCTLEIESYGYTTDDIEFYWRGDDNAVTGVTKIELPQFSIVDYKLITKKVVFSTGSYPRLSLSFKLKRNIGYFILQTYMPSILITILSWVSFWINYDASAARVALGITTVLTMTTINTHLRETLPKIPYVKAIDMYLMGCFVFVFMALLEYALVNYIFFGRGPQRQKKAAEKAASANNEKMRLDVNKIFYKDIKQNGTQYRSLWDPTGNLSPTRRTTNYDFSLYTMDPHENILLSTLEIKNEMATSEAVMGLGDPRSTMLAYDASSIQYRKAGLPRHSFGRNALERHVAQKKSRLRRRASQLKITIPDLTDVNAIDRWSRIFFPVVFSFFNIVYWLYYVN
T2 sequence (P18507 40-475): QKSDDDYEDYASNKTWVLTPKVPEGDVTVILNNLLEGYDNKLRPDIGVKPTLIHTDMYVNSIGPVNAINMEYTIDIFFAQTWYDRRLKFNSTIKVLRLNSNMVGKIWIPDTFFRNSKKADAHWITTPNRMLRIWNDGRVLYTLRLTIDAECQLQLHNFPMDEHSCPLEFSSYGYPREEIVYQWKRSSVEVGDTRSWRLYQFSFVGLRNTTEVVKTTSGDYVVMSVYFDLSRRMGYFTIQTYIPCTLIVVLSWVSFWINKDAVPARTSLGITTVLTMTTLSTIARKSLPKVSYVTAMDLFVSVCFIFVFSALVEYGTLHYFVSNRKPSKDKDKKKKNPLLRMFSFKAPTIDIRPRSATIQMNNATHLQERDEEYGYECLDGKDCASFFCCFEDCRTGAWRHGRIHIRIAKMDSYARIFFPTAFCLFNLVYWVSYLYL
T1 sequence (P47869 29-451): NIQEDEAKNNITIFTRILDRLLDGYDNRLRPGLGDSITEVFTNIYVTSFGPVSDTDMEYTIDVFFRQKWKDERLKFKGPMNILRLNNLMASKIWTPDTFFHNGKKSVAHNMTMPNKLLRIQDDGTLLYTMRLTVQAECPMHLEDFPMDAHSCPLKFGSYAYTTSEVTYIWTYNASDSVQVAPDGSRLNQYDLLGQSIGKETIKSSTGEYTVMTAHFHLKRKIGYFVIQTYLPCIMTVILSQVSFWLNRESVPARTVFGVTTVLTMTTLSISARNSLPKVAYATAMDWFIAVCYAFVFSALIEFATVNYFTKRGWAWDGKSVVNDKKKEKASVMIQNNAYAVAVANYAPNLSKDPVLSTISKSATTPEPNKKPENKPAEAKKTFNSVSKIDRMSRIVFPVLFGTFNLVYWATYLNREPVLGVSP
T1 sequence (P28472 26-473 partner): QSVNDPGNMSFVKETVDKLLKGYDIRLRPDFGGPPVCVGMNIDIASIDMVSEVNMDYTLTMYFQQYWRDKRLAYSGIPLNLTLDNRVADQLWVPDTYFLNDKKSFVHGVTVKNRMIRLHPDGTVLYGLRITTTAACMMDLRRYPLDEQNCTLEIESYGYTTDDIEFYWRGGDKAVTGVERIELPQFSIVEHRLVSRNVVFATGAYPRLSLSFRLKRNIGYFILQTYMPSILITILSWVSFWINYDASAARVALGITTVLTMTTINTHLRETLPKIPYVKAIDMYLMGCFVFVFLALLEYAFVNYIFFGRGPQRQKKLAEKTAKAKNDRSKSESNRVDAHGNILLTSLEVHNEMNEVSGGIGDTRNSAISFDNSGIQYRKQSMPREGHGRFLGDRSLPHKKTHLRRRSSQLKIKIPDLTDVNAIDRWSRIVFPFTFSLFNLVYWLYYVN
T1 sequence (P18507 40-475): as the sequence (P18507 40-475) above
T3 sequence (P47869 29-451): as the sequence (P47869 29-451) above
T3 sequence (P28472 26-473 partner): as the sequence (P28472 26-473 partner) above
T3 sequence (P18507 40-475): as the sequence (P18507 40-475) above

SMILES	Relative Potentiation for GABAA2 (GABAA receptor α2β3γ2)	Relative Potentiation for GABAA1 (GABAA receptor α1β2γ2)	Ki [1] [nM]
Cc1ccc(-c2c(F)ccc3c(N)c4c(nc23)CN(C2CCC2)C4=O)cn1 [9-Amino-2-cyclobutyl-6-fluoro-5-(6-methylpyridin-3-yl)-2,3-dihydropyrrolo[3,4-b]quinolin-1-one]	0.15	0	0.305
Nc1c2c(nc3c(-c4cccc(F)c4F)cccc13)CN(C1CC1)C2=O [9-Amino-2-cyclopropyl-5-(2,3-difluorophenyl)-2,3-dihydropyrrolo[3,4-b]quinolin-1-one]	0.16	0.033	17
Nc1c2c(nc3c(-c4ccc(F)cc4F)cccc13)CN(C1CC1)C2=O [9-Amino-2-cyclopropyl-5-(2,4-difluorophenyl)-2,3-dihydropyrrolo[3,4-b]quinolin-1-one]	0.14	0.018	20
Cc1ccc(-c2cccc3c(N)c4c(nc23)CN(C2CC2)C4=O)c(F)n1 [9-Amino-2-cyclopropyl-5-(2-fluoro-6-methylpyridin-3-yl)-2,3-dihydropyrrolo[3,4-b]quinolin-1-one]	0.18	0	43.4
Nc1c2c(nc3c(-c4ccccc4F)cccc13)CN(C1CC1)C2=O [9-Amino-2-cyclopropyl-5-(2-fluorophenyl)-2,3-dihydropyrrolo[3,4-b]quinolin-1-one]	0.16	−0.024	18.3
Cc1ccc(-c2cccc3c(N)c4c(nc23)CN(C2CC2)C4=O)cn1 [9-Amino-2-cyclopropyl-5-(6-methyl-pyridin-3-yl)-2,3-dihydropyrrolo[3,4-b]quinolin-1-one]	0.1	−0.11	29.9
CCN1Cc2nc3c(-c4ccc(F)c(OC)c4)cccc3c(N)c2C1=O [9-Amino-2-ethyl-5-(4-fluoro-3-methoxyphenyl)-2,3-dihydropyrrolo[3,4-b]quinolin-1-one]	0.18	0.09	25.5
CCN1Cc2nc3c(-c4cnccc4C)cccc3c(N)c2C1=O [9-Amino-2-ethyl-5-(4-methylpyridin-3-yl)-2,3-dihydropyrrolo[3,4-b]quinolin-1-one]	0.14	0.08	23.4
CCN1Cc2nc3c(-c4cc(F)ccc4OC)cccc3c(N)c2C1=O [9-Amino-2-ethyl-5-(5-fluoro-2-methoxyphenyl)-2,3-dihydropyrrolo[3,4-b]quinolin-1-one]	0.17	0.054	27.4
COc1ccc(Cl)c(-c2cccc3c(N)c4c(nc23)CN(C2CC2)C4=O)c1 [9-Amino-5-(2-chloro-5-methoxyphenyl)-2-cyclopropyl-2,3-dihydropyrrolo[3,4-b]quinolin-1-one]	0.14	0.068	33.2
COc1cccc(-c2cccc3c(N)c4c(nc23)CN(C)C4=O)c1F [9-Amino-5-(2-fluoro-3-methoxyphenyl)-2-methyl-2,3-dihydropyrrolo[3,4-b]quinolin-1-one]	0.11	0.09	32.5
COc1cccc(F)c1-c1cccc2c(N)c3c(nc12)CN(C(C)C)C3=O [9-Amino-5-(2-fluoro-6-methoxyphenyl)-2-isopropyl-2,3-dihydropyrrolo[3,4-b]quinolin-1-one]	0.15	−0.16	26.8
COc1cccc(F)c1-c1c(F)ccc2c(N)c3c(nc12)CN(C)C3=O [9-Amino-6-fluoro-5-(2-fluoro-6-methoxyphenyl)-2-methyl-2,3-dihydropyrrolo[3,4-b]quinolin-1-one]	0.088	−0.02	8.14

The next lines start with the values.

Relative Potentiation for GABAA2 (GABAA receptor α2β3γ2)	Relative Potentiation for GABAA1 (GABAA receptor α1β2γ2)	Ki [1] [nM]	SMILES
0.19	0.042	1.14	COc1ccc(-c2c(F)ccc3c(N)c4c(nc23)CN(C2CCC2)C4=O)c(C)n1 [9-Amino-2-cyclobutyl-6-fluoro-5-(6-methoxy-2-methylpyridin-3-yl)-2,3-dihydropyrrolo[3,4-b]quinolin-1-one]
0.17	0.065	3.04	COc1cc(C)c(-c2c(F)ccc3c(N)c4c(nc23)CN(C2CCC2)C4=O)cn1 [9-Amino-2-cyclobutyl-6-fluoro-5-(6-methoxy-4-methylpyridin-3-yl)-2,3-dihydropyrrolo[3,4-b]quinolin-1-one]
0.19	−0.04	2.63	COc1ccc(-c2c(F)ccc3c(N)c4c(nc23)CN(C2CCC2)C4=O)cn1 [9-Amino-2-cyclobutyl-6-fluoro-5-(6-methoxypyridin-3-yl)-2,3-dihydropyrrolo[3,4-b]quinolin-1-one]
0.09	−0.053	1.46	Nc1c2c(nc3c(-c4cncnc4)c(F)ccc13)CN(C1CCC1)C2=O [9-Amino-2-cyclobutyl-6-fluoro-5-pyrimidin-5-yl-2,3-dihydropyrrolo[3,4-b]quinolin-1-one]
0.3	−0.01	3.01	COc1cccc(F)c1-c1cccc2c(N)c3c(nc12)CN(C1CCCC1)C3=O [9-Amino-2-cyclopentyl-5-(2-fluoro-6-methoxyphenyl)-2,3-dihydropyrrolo[3,4-b]quinolin-1-one]
0.17	0.062	4.12	COc1ccc(F)c(-c2c(F)ccc3c(N)c4c(nc23)CN(C2CC2)C4=O)c1F [9-Amino-2-cyclopropyl-5-(2,6-difluoro-3-methoxyphenyl)-6-fluoro-2,3-dihydropyrrolo[3,4-b]quinolin-1-one]
0.088	−0.02	8.14	COc1cc(F)c(-c2cccc3c(N)c4c(nc23)CN(C2CC2)C4=O)c(F)c1 [9-Amino-2-cyclopropyl-5-(2,6-difluoro-4-methoxyphenyl)-2,3-dihydropyrrolo[3,4-b]quinolin-1-one]
0.13	0.032	2.68	COc1cccc(-c2c(F)ccc3c(N)c4c(nc23)CN(C2CC2)C4=O)c1F [9-Amino-2-cyclopropyl-6-fluoro-5-(2-fluoro-3-methoxyphenyl)-2,3-dihydropyrrolo[3,4-b]quinolin-1-one]
0.15	0.002	7.54	COc1ccc(F)c(-c2c(F)ccc3c(N)c4c(nc23)CN(C2CC2)C4=O)c1 [9-Amino-2-cyclopropyl-6-fluoro-5-(2-fluoro-5-methoxyphenyl)-2,3-dihydropyrrolo[3,4-b]quinolin-1-one]
0.2	0.02	3.72	COc1ccccc1-c1c(F)ccc2c(N)c3c(nc12)CN(C1CC1)C3=O [9-Amino-2-cyclopropyl-6-fluoro-5-(2-methoxyphenyl)-2,3-dihydropyrrolo[3,4-b]quinolin-1-one]
0.17	0.005	1.4	CCN1Cc2nc3c(-c4cc(OC)ccc4F)c(F)ccc3c(N)c2C1=O [9-Amino-2-ethyl-6-fluoro-5-(2-fluoro-5-methoxyphenyl)-2,3-dihydropyrrolo[3,4-b]quinolin-1-one]
0.093	−0.12	3.47	CCN1Cc2nc3c(-c4c(F)cccc4OC)c(F)ccc3c(N)c2C1=O [9-Amino-2-ethyl-6-fluoro-5-(2-fluoro-6-methoxyphenyl)-2,3-dihydropyrrolo[3,4-b]quinolin-1-one]
0.094	−0.0025	2.01	CCN1Cc2nc3c(-c4cnccc4C)c(F)ccc3c(N)c2C1=O [9-Amino-2-ethyl-6-fluoro-5-(4-methylpyridin-3-yl)-2,3-dihydropyrrolo[3,4-b]quinolin-1-one]
0.11	0.072	4.84	CCN1Cc2nc3c(-c4ccc(OC)cc4OC)c(F)ccc3c(N)c2C1=O [9-Amino-5-(2,4-dimethoxy-phenyl)-2-ethyl-6-fluoro-2,3-dihydropyrrolo[3,4-b]quinolin-1-one]
0.36	0.11	3.75	COc1cccc(F)c1-c1cccc2c(N)c3c(nc12)CN(C1CC(C)C1)C3=O (stereo not drawn) [9-Amino-5-(2-fluoro-6-methoxyphenyl)-2-(3-methylcyclobutyl)-2,3-dihydropyrrolo[3,4-b]quinolin-1-one]
0.27	0.033	2.22	CCN1Cc2nc3c(-c4cc(Cl)ccc4OC)c(F)ccc3c(N)c2C1=O [9-Amino-5-(5-chloro-2-methoxyphenyl)-2-ethyl-6-fluoro-2,3-dihydropyrrolo[3,4-b]quinolin-1-one]
